Test results taken from publication PMC6925260 (Nature Communications, 2019).
Where a chain is given by its changes, count along the chain named. pKd: −log10 of the molar value. Where two headings read alike, the source gives them in different places.

Key:
[1] = target: T1, PPARγ LBD (wt) / NCoR CoRNR box peptide (Homo sapiens, UniProt P37231); assay: Fluorescence anisotropy, NCoR peptide to wt PPARγ LBD (alone or ligand bound); type: binding
T1 construct: 6× His tag with TEV recognition site (N, cleaved yes); made in house; host or cells: E. coli BL21 (DE3) gold
T1 sequence (P37231 230-505): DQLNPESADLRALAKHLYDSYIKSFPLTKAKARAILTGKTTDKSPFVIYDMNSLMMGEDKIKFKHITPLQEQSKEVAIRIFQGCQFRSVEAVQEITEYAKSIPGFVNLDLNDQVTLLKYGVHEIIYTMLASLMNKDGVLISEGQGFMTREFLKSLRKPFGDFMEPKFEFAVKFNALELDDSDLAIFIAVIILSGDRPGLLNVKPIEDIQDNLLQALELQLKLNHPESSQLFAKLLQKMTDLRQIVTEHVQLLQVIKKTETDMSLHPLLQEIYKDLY
Experimental: (§1) These samples were then plated as usual.

[2] = target: T2, PPARγC313A,Q322C-BTFA LBD / NCoR peptide (Homo sapiens, UniProt P37231, C313A/Q322C); assay: Fluorescence anisotropy, NCoR peptide to PPARγC313A,Q322C-BTFA LBD; type: binding; conditions: Supp. Table 2
T2 construct: 6× His tag with TEV recognition site (N, cleaved yes); made in house; host or cells: E. coli BL21 (DE3) gold
T2 sequence (P37231 230-505 C313A/Q322C): T1 sequence (P37231 230-505) with C84A, Q93C
Experimental: as §1

[3] = target: T3, PPARγC313A,Q322C-BTFA LBD / MED1 peptide (Homo sapiens, UniProt P37231, C313A/Q322C); assay: Fluorescence anisotropy, MED1 peptide to PPARγC313A,Q322C-BTFA LBD; type: binding; conditions: Supp. Table 2
T3 construct: 6× His tag with TEV recognition site (N, cleaved yes); made in house; host or cells: E. coli BL21 (DE3) gold
Experimental: as §1

[4] = target: PPARγ LBD, deletion of helix 12 / NCoR peptide; assay: Fluorescence anisotropy, NCoR peptide to helix 12 deleted (DH12) PPARγ LBD; type: binding; conditions: read-out: NCoR dissociation constant average, DH12; Supp. Fig. 11
Experimental: as §1

PPARg LBD N340A = assay: Supplementary Figure 11: fluorescence anisotropy dissociation constants, N340A (peptide not given)
[5] = target: T4, K329A PPARγ LBD / NCoR peptide (Homo sapiens, UniProt P37231, K329A); assay: Fluorescence anisotropy, NCoR peptide to K329A PPARγ LBD; type: binding; conditions: read-out: NCoR dissociation constant average, K329A; Supp. Fig. 11
T4 construct: 6× His tag with TEV recognition site (N, cleaved yes); made in house; host or cells: E. coli BL21 (DE3) gold
Experimental: as §1

K347A PPARg LBD = assay: Supplementary Figure 11: fluorescence anisotropy dissociation constants, K347A (peptide not given); type: binding
[6] = target: T5, K347A PPARγ LBD / NCoR peptide (Homo sapiens, UniProt P37231, K347A); assay: Fluorescence anisotropy, NCoR peptide to K347A PPARγ LBD; type: binding; conditions: read-out: NCoR dissociation constant average, K347A; Supp. Fig. 11
T5 construct: 6× His tag with TEV recognition site (N, cleaved yes); made in house; host or cells: E. coli BL21 (DE3) gold
Experimental: as §1

`O=C(Nc1ccccc1)c1cc([N+](=O)[O-])ccc1Cl` [GW9662] was tested, and the “NCoR Kd mean difference ±SE, Apo vs ligand” value ([1]; Supp. Table 3, wt, one-way ANOVA, Dunnett's, 11 df) was 150 ±39, the “effect on corepressor CoRNR box peptide affinity” value ([1]; Supp. Table 9 summary, NCoR and SMRT, comparator apo) was “é” and the pKd ([1]; read-out: NCoR Kd, wt, Supp. Table 2, wt values not from the same experiment as PPARγC313A,Q322C-BTFA (first wt column)) was 6.56. For the same compound, the pKd ([1]; read-out: NCoR Kd, WT, ligand-bound, run 1) was 6.66, the pKd ([1]; read-out: NCoR Kd, WT, ligand-bound, run 2) was 6.81 and the pKd ([1]; read-out: NCoR WT Kd, Supp. Table 1, wt PPARγ LBD, FITC peptide 50 nM, fluorescence anisotropy, pH 7.4, 2 h room temperature, average of two technical replicates) was 6.38. For the same compound, the pKd ([1]; read-out: NCoR dissociation constant average, wt, Supp. Fig. 11) was 6.59, the “effect on affinity/recruitment of NCoR CoRNR peptide” value ([1]; versus apo) was “increase affinity” and the “NCoR fold change (labeled/wt), PPARγC313A,Q322C-BTFA” value [2] was 1.3. The pKd ([2]; read-out: NCoR Kd, PPARγC313A,Q322C-BTFA, covalent ligands T0070907, GW9662 expected to be apo-like) was 6.46, the “MED1 fold change (labeled/wt), PPARγC313A,Q322C-BTFA” value [3] was 2.3 and the pKd ([3]; read-out: MED1 Kd, PPARγC313A,Q322C-BTFA, covalent ligands T0070907, GW9662 expected to be apo-like) was 5.01. It also gave a pKd [4] of 7.03, a pKd (PPARg LBD N340A; read-out: dissociation constant, Average N340A values, average of the listed data sets) of 6.31 and a pKd (PPARg LBD N340A; read-out: dissociation constant, data set FP 3 15 18 Inverse agonism part 2) of 6.47. It also gave a pKd (PPARg LBD N340A; read-out: dissociation constant, data set PPARg LBD N340A 12 11 17) of 6.20, a pKd [5] of 5.74 and a pKd (K347A PPARg LBD; data set 2 28 18 FP inverse agonism, read-out: dissociation constant) of 6.16. For the same compound, the pKd (K347A PPARg LBD; data set FP K329A K347A 3 20 18, read-out: dissociation constant) was 6.31 and the pKd [6] was 6.23.
